Source: US20110224300A1, “USE OF POTASSIUM 2-(a- HYDROXYPENTYL) BENZOATE IN THE MANUFACTURE OF MEDICAMENTS FOR PREVENTING AND/OR TREATING SENILE [sequence]” (Institute of Mataria Medica, Chinese Academy of Me, priority 2008, published 2011)

What was measured:
[1] = tested on: AChE; assay: AChE activity of hippocampus from SAMP8 mice; type: in vivo; conditions: treatment up to 35 days, tendency only
Protocol: (§1) SAMP8 were divided into three experimental groups randomly: one vehicle control group, and two dl-PHPB-treated groups (50, and 160 mg/kg). Drugs and vehicle were administered orally to SAMP8 mice for 35 days (one time/each day). The spatial learning and memory abilities of SAMP8 mice were detected by Morris water maze and DTT-2 jumping apparatus in 31-35 days. The testing was commenced at 40 min after drugs treated. The biochemical and pathology assays conducted later (in 24 h) after behavioral testing.
(§2) The methods as described previously.

[2] = tested on: cortex and hippocampus neurons of 2-VO rats; assay: HE staining, neuronal morphology in 2-VO rats; type: in vivo, rat; conditions: 21 days
Protocol: (§3) Four rats in each group were anesthetized with sodium pentobarbital (100 mg/kg, intraperitoneal injection), and perfused transcardially with cold saline, followed by 300 ml of 4% paraformaldehyde in 0.01 M phosphate buffer (pH 7.4). After these procedures, the brains were removed and stored in the 0.01 M phosphate buffer (pH 7.4) with 4% paraformaldehyde and 30% sucrose at 4° C. until fully equilibrated. Then they were postfixed at 4° C., dehydrated and embedded in paraffin blocks. Coronal sections of 8 μm were stained with hematoxylin-eosin and Klüver-Barrera.
HE staining in the cytoplasm and nucleus in different colors, you can clearly see the general shape of the cells. […] Above that, dl-PHPB could protect and care the damage of cortex and hippocampus neurons caused by chronic cerebral hypoperfusion.

[3] = tested on: SAMP8 mice; assay: Step down test in SAMP8 mice; type: in vivo; conditions: for step-down latency time: vehicle 0.7±0.2, P<0.01
Protocol: as §1
The step-down avoidance task was performed by using a behavior box (22 cm×15 cm×30 cm each). Each testing chamber has 3 Plexiglas black walls, a clear Plexiglas front wall, metal grid floors and an insulating platform (3 cm diameter, 4 cm height), which is located at one corner of the testing chamber. The metal grids are connected to the output terminals of an electrical stimulator. For the habituation session, each mouse was gently placed on the insulating platform and was allowed to explore in the testing chamber for 3 min before placing back on the platform again. Monophasic pulses (1 ms, 1 Hz, 36 VDC) were continuously delivered for 5 min during the training tria. If the mouse steps down from the platform onto the grid floor, the mouse will be subjected to receive an electric shock until returning to the platform. Then, 24 h after the training, the mice were placed on the platform for assessing their long term memory of retention period. The electric shocks were delivered for 5 min and the latency to step down on the grid with four paws for the first time (step-down latency) and the numbers of errors subjected to shocks within 5 min were recorded.

[4] = tested on: corpus callosum and optic tract of 2-VO rats; assay: Klüver-Barrera staining in 2-VO rats; type: in vivo, rat; conditions: for improvement of pathological damage of the corpus callosum, K-B staining: 21 days, rank among doses
Protocol: as §3
KB staining could reflect the morphological changes of neuronal myelin sheath, and the morphological changes of nerve fibers.

[5] = tested on: SOD; assay: SOD activity of brain tissues from Aβ(25-35)-induced dementia rats; type: in vivo, Male Wistar rats; conditions: Aβ(25-35) rats; for SOD activity in the cortex: 2 weeks, vehicle 286.8±18.3
Protocol: (§4) The biochemical assays were conducted later (in 24 h) after behavioral testing. Eight rats in each group were anesthetized with ether and sacrificed. The brains were quickly removed and cleaned with ice-cold saline. Then the parietal cortex and hippocampus were isolated. For biochemical analysis, the tissues were weighed and homogenized in ice-cold saline with the proportion of 1:9 (w/v). Homogenization (IKA, Germany) was carried out for 2 min in an ice bath. After the homogenates were centrifuged at 2,000×g for 10 min at 4° C. (Sigma, Germany), the supernatant was used for analytical procedures. The levels of choline acetyltransferase (ChAT) SOD, and MDA activities were determined with commercial colorimetric assay kits (Nanjing Jiancheng Bioengineering Institute, China). The content of protein in the supernatant was determined by Bradford method using BSA as standard.
Rats were divided into four experimental groups randomly (10 rats/each group): one sham-operated group, one vehicle control group, and two dl-PHPB-treated groups (39, and 129 mg/kg). At 1 days after operation, drugs and vehicle were administered orally to rats for 14 days (one time/each day). The spatial learning and memory abilities of rats were detected by Morris water maze in the 9-12 days after operation. The testing of Morris water was commenced at 40 min after drugs treated. The biochemical and pathology assays conducted later (in 24 h) after behavioral testing.
as §2

[6] = tested on: Mitochondrial ATPase; assay: Cortex mitochondrial ATPase activity in SAMP8 mice; type: in vivo; conditions: 160 mg/kg oral, 35 days, vehicle 8.58±0.21, significant
Protocol: as §4
as §1, with “testing. […]” for “testing.”

[7] = tested on: MDA; assay: MDA level of brain tissues from SAMP8 mice; type: in vivo; conditions: 35 days; for MDA level in the hippocampus / decrease of hippocampus MDA level compared with SAMP8: without statistical significance
Protocol: as §4, §1, §2

[8] = tested on: SOD; assay: SOD activity of brain tissues from SAMP8 mice; type: in vivo; conditions: 35 days; for SOD activity in the hippocampus: untreated SAMP8 279.4±65.7, P<0.05
Protocol: as §4, §1, §2

[9] = tested on: ChAT; assay: ChAT activity of brain tissues from SAMP8 mice; type: in vivo
Protocol: as §4
as §1, with “testing. […]” for “testing.”

## CCCCC(O)c1ccccc1C(=O)[O-].[K+] (racemic) [dl-PHPB, Potassium 2-(1-Hydroxypentyl)-benzoate]
[1]
  AChE activity in the hippocampus: might decrease AChE activity
[2]; dl-PHPB 13 mg/kg
  neuronal morphology, HE staining: only minor improve the abnormal shape of cortical neurons
[2]; dl-PHPB 39 mg/kg
  neuronal morphology, HE staining: significantly improve the cortex, hippocampus area CA1 and CA3 neurons form
[2]; dl-PHPB 129 mg/kg
  neuronal morphology, HE staining: improve the cortex and hippocampus CA1 area neuronal morphologic abnormalities
[3]; 50 mg/kg oral, first day of training, vehicle 8.3±0.6, P<0.01
  numbers of errors subjected to shocks: 5.8±0.5
[3]; 50 mg/kg oral, second day, vehicle 4.6±0.3, P<0.05
  numbers of errors subjected to shocks: 3.4±0.3
[3]; 50 mg/kg oral
  step-down latency time: 5.5±0.8
[3]; 160 mg/kg oral, first day of training, vehicle 8.3±0.6, P<0.001
  numbers of errors subjected to shocks: 4.9±0.5
[3]; 160 mg/kg oral, second day, vehicle 4.6±0.3, P<0.01
  numbers of errors subjected to shocks: 2.1±0.3
[3]; 160 mg/kg oral
  step-down latency time: 10.2±2.4
[4]; dl-PHPB 13 mg/kg
  improvement of pathological damage of the corpus callosum, K-B staining: the weakest
[4]; dl-PHPB 39 mg/kg
  pathological changes of the optic tract, K-B staining: strong role
  improvement of pathological damage of the corpus callosum, K-B staining: strongest
[4]; dose not specified
  pathological changes of the optic tract, K-B staining: a certain improvement
[5]; 39 mg/kg oral
  SOD activity in the cortex: 238.2±32.7 U/mg protein
[5]; 129 mg/kg oral, P<0.01
  SOD activity in the cortex: 185.2±21.6 U/mg protein
[5]; hippocampus
  SOD activity in the hippocampus: not significantly improved
[6]
  ATPase activity (cortex mitochondria): 9.82±0.51 U/mg protein
[7]; 50 mg/kg oral
  MDA level in the hippocampus: 1.23±0.05 nmol/mg protein
  decrease of hippocampus MDA level compared with SAMP8: 35.3%
[7]; 160 mg/kg oral
  MDA level in the hippocampus: 1.26±0.09 nmol/mg protein
  decrease of hippocampus MDA level compared with SAMP8: 33.7%
[7]; cortex, data not shown
  MDA level in the cortex: did not significantly improved in MDA level
[8]; 50 mg/kg oral
  SOD activity in the hippocampus: 156.2±7.8 U/mg protein
[8]; 160 mg/kg oral
  SOD activity in the hippocampus: 158.7±11.4 U/mg protein
[8]; cortex
  SOD activity in the cortex: did not significantly improve SOD activity
[9]; 35 days, dose-dependent, P<0.05
  ChAT activity in the hippocampus: significantly increased ChAT activity
[9]; cortex, data not shown
  ChAT activity in the cortex: did not significantly improve ChAT activity
